Data published in US11602534B2, “Pyrimidine derivative kinase inhibitors” (HEFEI INSTITUTES OF PHYSICAL SCIENCE, CHINESE ACADEMY OF …, priority 2017, dated 2023).

Legend:
[1] = test system: TEL-PDGFRβ-BaF3; experiment: Proliferation of TEL-PDGFRβ-BaF3 cells, CCK8 cell viability assay; type: cell-based; settings: Mus musculus, 72 hours, stably expressing PDGFRβ kinase
In short: (§1)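 GI50 (μM) from CCK8 read-out, which measures reductive dehydrogenase activity in living cells. Cells: parental mouse BaF3, or BaF3 stably expressing TEL-fused human cKIT, PDGFRα or PDGFRβ kinase domains and grown without IL-3, making them kinase-dependent.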

[2] = test system: Tel-cKit-BaF3; experiment: Proliferation of Tel-cKit-BaF3 cells, CCK8 cell viability assay; type: cell-based, mouse; settings: Mus musculus; 72 hours, CCK8; stably expressing cKIT kinase
In short: as §1

[3] = test system: human acute myeloid leukemia cell strain MOLM-13; experiment: Proliferation of MOLM-13 cells, Cell Titer-Glo; type: cell-based; settings: for GI50: Homo sapiens, MOLM-13, 72 hours, Cell Titer-Glo, FLT3/ITD and wild-type FLT3, read-out: GI50 MOLM13
Method: (§2) In addition, in this example the inhibitory activity of preferred compounds (Compound 5 and Compound 135) was tested against the following cell strains: human acute myeloid leukemia cell strain MV4-11 (expressing FLT3/ITD mutant gene), human acute myeloid leukemia cell strain MOLM-13 (expressing FLT3/ITD mutant gene and wild-type FLT3 gene), human acute myeloid leukemia cell strain MOLM-14 (expressing FLT3/ITD mutant gene and wild-type FLT3 gene), human acute myeloid leukemia cell strain OCI-AML-3 (expressing FLT3 A680V mutant gene), human chronic lymphatic leukemia cell strain MEC-1, Chinese hamster lung (CHL) cells, Chinese hamster ovary (CHO) cells, wherein all the cells were purchased from ATCC. In the example the compounds of the present invention were added respectively into the above cells at different concentrations (0.000508 μM, 0.00152 μM, 0.00457 μM, 0.0137 μM, 0.0411 μM, 0.123 μM, 0.370 μM, 1.11 μM, 3.33 μM, 10 μM in DMSO) and the cells were incubated for 72 hours. The number of viable cells was determined by quantification of ATP in living cells using Cell Titer-Glo® (Promega, the USA) Luminescent Cell Viability Assay kit and thereby GI50 was calculated.

[4] = test system: human chronic lymphatic leukemia cell strain MEC-1; experiment: Proliferation of MEC-1 cells, Cell Titer-Glo; type: cell-based; settings: MEC1, 72 hours
Method: as §2

[5] = test system: poly(ADP-ribose) polymerase (PARP); experiment: Cell apoptosis: PARP cleavage by Western Blot in AML cells; type: cell-based, human; settings: 1 μM, 24 hours; MOLM-13, MOLM-14, MV-4-11
Description: In human acute myeloid leukemia cells MV4-11 (expressing FLT3/ITD mutant gene) cell strain and human acute myeloid leukemia cells MOLM-13 and MOLM-14 (expressing FLT3/ITD mutant gene and wild-type FLT3 gene) cell strains, the effects of Compound 5 and Compound 135 on protein cleavage of the DNA repairase poly(ADP-ribose) polymerase (PARP) and Caspase (cysteinyl aspartate-specific proteinase) 3 that were closely related to cell apoptosis were examined in cells in order to confirm whether the death of the cells after the administration was caused by apoptosis or necrosis. MOLM-13, MOLM-14, MV-4-11 cell strains were treated with Compound 5, Compound 135 (at different concentrations: 0 μM, 0.1 μM, 0.3 μM, 1 μM, 3 μM in DMSO) and the control compound PKC412 (purchased from MedChem Express) (1 μM in DMSO), respectively, and the cells were collected after 24 hours. Western Blot was used to detect the effects of different concentrations of compounds on protein cleavage of the DNA repairase poly(ADP-ribose) polymerase (PARP) and Caspase (cysteinyl aspartate-specific proteinase) 3.

[6] = test system: Chinese hamster ovary (CHO) cells; experiment: cells; type: cell-based; settings: Cricetulus griseus, 72 hours, Cell Titer-Glo
Method: as §2

[7] = test system: protein kinase FLT3; experiment: Phosphorylation of FLT3 in AML cells; type: cell-based, human; settings: MV-4-11, MOLM-13 and MOLM-14 cell lines; 4 hours; compounds 0.01-3 μM, PKC412 1 μM
Method: (§3) In cells having FLT3 gene and/or FLT3/ITD mutant gene, specifically, human acute myeloid leukemia cells MV4-11 (expressing FLT3/ITD mutant gene) cell strain and human acute myeloid leukemia cells MOLM-13 and MOLM-14 (expressing FLT3/ITD mutant gene and wild-type FLT3 gene) cell strains, Compound 5, Compound 135 and a FLT3 kinase inhibitor, PKC412 (purchased from Hao Yuan Chemexpress Company, Shanghai), which was used as the control, were evaluated for their effects in cells on phosphorylation of FLT3 and FLT3/ITD protein kinase and phosphorylation of the closely-related STATS protein which is downstream of FLT3 signaling pathways, as well as their effects on phosphorylation of other relevant protein kinases such as ERK and AKT, by assaying a number of cellular biochemical and functional endpoints. In addition, the effects on C-Myc and phosphorylation of the transcription factor NF-κB subunit p65 was also examined (FIGS. 1a-1f). Compound 5 and Compound 135 at different concentrations (0 μM, 0.01 μM, 0.03 μM, 0.1 μM, 0.3 μM, 1 μM, 3 μM in DMSO) and the FLT3 kinase inhibitor PKC412 (1 μM in DMSO) were used to treat acute myeloid leukemia cells MV-4-11, MOLM13 and MOLM-14 that had FLT3 and/or FLT3/ITD gene for 4 hours, respectively, and then the samples were collected. The effects of the compounds on the phosphorylation of proteins such as STATS, C-Myc, ERK, NF-κB p65, AKT in cells were tested (FIGS. 1a-1f).

[8] = Phosphorylation of STATS downstream of FLT3 in AML cells; type: cell-based, human; settings: MV-4-11, MOLM13 and MOLM-14; 4 hours; compounds 0.01-3 μM, PKC412 1 μM
Method: as §3

GI50 [1] | GI50 [2] | GI50 [3] | GI50 [4] | Compound | inhibition of MOLM13 (in words) ([3]; summary of Table 3) | cleavage of the DNA repairase poly(ADP-ribose) polymerase (PARP) [5] | GI50 [6] | phosphorylation of the protein kinase FLT3 [7] | phosphorylation of STATS [8]
58 nM | 5600 nM | 267 nM | > 10000 nM | CC(=O)Nc1cc(Oc2ccc(NC(=O)Cc3ccc(F)cc3F)cc2)ncn1 [Example 5, N-[4-(6-acetylamino-pyrimidin-4-yloxy)-phenyl]-2-(2,4-difluoro-phenyl)-acetamide] | selectively and strongly inhibited | significant cleavage | > 10000 nM | capable of inhibiting phosphorylation | significant inhibition
40 nM | > 10000 nM | 466 nM | > 10000 nM | CC(=O)Nc1cc(Oc2ccc(NC(=O)Cc3ccccc3C(F)(F)F)cc2)ncn1 [Example 135, N-[4-(6-acetylamino-pyrimidin-4-yloxy)-phenyl]-2-(2-trifluoromethyl-phenyl)-acetamide] |  | significant cleavage | > 10000 nM | capable of inhibiting phosphorylation | significant inhibition
